Laboratory results taken from US8293726B2, “Treatment of cancer and other diseases” (Vianova Labs, Inc., priority 2005, dated 2012).
“And” between values parts separate entries of the source, which are not always exact repeats. Equal values may be shown once.

Legend:
[1] = system: metastatic renal cell carcinoma (stage IV); test: Patient case: metastatic renal cell carcinoma; assay type: in vivo, human; settings: 80 mg/day
[2] = system: poorly differentiated lobular carcinoma of the right breast; test: Patient case: stage IV lobular breast carcinoma with liver, spleen and bone metastases; assay type: in vivo, human
Description: A patient with a past medical history of anemia and mild chronic renal failure due to retroperitoneal fibrosis presented with a stage IV poorly differentiated lobular carcinoma of the right breast and liver, spleen and bone metastases. […] Three days after treatment, we observed a decrease in LDH level from 450 to 204.

[3] = system: human tumor cell line: large B-cell lymphoma; test: Human tumor cell lines in immunocompromised mice (intraperitoneal, ascitis): lymphoma; assay type: in vivo; settings: treated mice (4, 2 and 0.8 mg/kg/day orally for 10 days)
Procedure: (§1) Immunocompromised mice were used for this experiment. Mice were inbred in a sterile environment and fed ad libitum. Four groups of 40 mice, weighing approximately 20 g each (range: 17-25 g), were used for each tumor type. The human tumor cell lines used were the following: large B-cell lymphoma; squamous-cell carcinoma of the lung; ductal carcinoma breast; and adenocarcinoma of the lung. A suspension of tumor cells was injected in the peritoneum of immunocompromised mice. Following this, mice were examined and weighed daily. After 6-8 days, we observed the development of abdominal carcinomatosis and […]. At day 18, we observed the development of an abundant […], which increased the weight of the mice by approximately 20 g. At that time, mice were divided into four groups of 10. […] Assessment of tumor cell concentration in the […] abdominal metastases were measured on day 18 and every 2 days thereafter. In all mice, prior to treatment, we observed an increase in LDH ESR (>100) and a decrease in the hematocrit. Control (untreated) mice all died between day 21 and day 25 in all tumor types. […] Complete response: Weight (and ascetic) loss and the disappearance of all abdominal metastatic nodules and tumor cells. Partial response: Weight (and ascitic) loss and at least 25% decrease of tumor cell in the […] least 25% decrease in measured abdominal metastatic nodules. […] Progressive disease: When we observed an increase in […] or tumor volume or death of the animal.

experimental lymphoma = test: Histological analysis of liver and kidneys of mice with experimental lymphoma; assay type: in vivo; settings: mouse with experimental lymphoma, orally daily 250 mg/kg
Procedure: FIGS. 11 and 12 are photomicrographs (450× and 900×, respectively) of part of the liver taken from a mouse with experimental lymphoma orally administered 24-ethyl-cholestane-3β,5α,6α-triol daily at a dosage of 250 mg/kg. Lymphocytic proliferation is insignificant.
Parenchymatous organs liver and kidneys received from mice with experimental lymphoma on the 15th day of observation and from mice treated with 24-ethyl-cholestane-3β,5α,6α-triol were taken for the histological analysis. Micropreparations were stained with hematoxilin eosin and examined by microscopy (FIGS. 9, 10, 11, and 12).

[4] = system: human tumor cell line: adenocarcinoma of the lung; test: Human tumor cell lines in immunocompromised mice (intraperitoneal, ascitis): lung adenocarcinoma; assay type: in vivo; settings: treated mice (4, 2 and 0.8 mg/kg/day orally for 10 days)
Procedure: as §1

[5] = system: hormone resistant metastatic prostate cancer; test: Patient case: hormone resistant metastatic prostate cancer, PSA; assay type: in vivo, human
Description: A patient presented with hormone resistant metastatic prostate cancer. They had previously been treated with three courses of chemotherapy (Navelbine+Taxotere, but their PSA was still increasing.

[6] = system: experimentally induced large B-cell lymphoma; test: Therapeutic efficacy in mice with experimentally induced large B-cell lymphoma (blood tests, LDH, body weight, autopsy); assay type: in vivo; settings: second treated group; M (arithmetic mean of 3 animals)
[7] = system: experimentally induced large B-cell lymphoma; test: as above; assay type: in vivo; set-up: Lymphocytes: unit not given here; settings: for LDH: blood plasma; for Total protein: blood serum; for Lymphocytes: blood
Procedure: Investigations were carried out on immunocompromised laboratory mice with experimentally-induced large B-cell lymphoma using hematological, immunological, biochemical, anatomical, and cytological methods. Two groups of 15 mice were employed. In the first group, 24-ethyl-cholestane-3β,5α,6α-triol was administered orally daily at a dosage of 5 mg/kg. The second group served as the control. The following parameters of therapeutic efficacy were compared: dynamics of LDH activity in the blood plasma, content of total protein, and general clinical blood test results.
As is seen from Table 2, statistically important differences (P<0.05) between animals with lymphoma and healthy animals were marked by the amount of leukocytes, hemoglobin, by color indication, the absolute number of lymphocytes in blood, as well as the content of total protein in the blood serum and the LDH activity in blood plasma. These changes characterize the presence of disorders in the lymphoid component of blood formation, indicate the presence of intensive cytolysis in the process of carcinogenesis (due to increased LDH), and show the presence of processes suppressing biosynthesis of protein.
The total content of protein in the blood serum and the hemoglobin concentration are increased. At the same time, a decrease in LDH activity in the blood plasma and in the number of lymphocytes was observed (FIG. 5).

[8] = system: pancreatic adenocarcinoma; test: Patient case: pancreatic adenocarcinoma, CA 19-9; assay type: in vivo, human; set-up: CA 19-9: unit not given beside the values
Description: A diabetic and insulin dependent patient with a past history of lymphoma presented with a 3 cm tumor in the head of pancreas and a suspicion of hepatic metastasis.

[9] = 5 mg/kg orally daily, course of treatment
[10] = first treated group, M (arithmetic mean of 3 animals)
[11] = first treated group, individual animals
[12] = second treated group, M (arithmetic mean of 3 animals)
[13] = second treated group, individual animals
[14] = third treated group, M (arithmetic mean of 4 animals)
[15] = third treated group, individual animals

SMILES: CC[C@H](CC[C@@H](C)[C@H]1CC[C@H]2[C@@H]3C[C@H](O)[C@@]4(O)C[C@@H](O)CC[C@]4(C)[C@H]3CC[C@]12C)C(C)C [24-ethyl-cholestane-3β,5α,6α-triol]
- chest CT scan, nodule in the right lower lobe ([1]; eight months later): 1 mm
- chest CT scan ([1]; one year after commencing therapy): normal
- chest CT scan, left lung metastasis ([1]; six weeks after start, 1 cm deposit in both lungs before): disappearance of the left lung metastasis
- CA 125 ([2]; After LC (five months), 60 mg/day, Before LC 125): 69
- CA 15-3 ([2]; After LC (five months), 60 mg/day, Before LC 237): 86
- renal failure and anemia ([2]; after treatment, 60 mg/day): improved
- spleen metastasis on CT scan ([2]; after treatment, 60 mg/day): regressed
- total Body MRI ([2]; after treatment, 60 mg/day): complete liver and spleen response
- primitive breast mass on ultrasound ([2]; after treatment, regressed from 5): 3 cm
- liver enzymes including LDH ([2]; five months after treatment commenced, 60 mg/day): returned to normal
- LDH level ([2]; three days after treatment, 60 mg/day, decrease from 450): 204
- Complete Remission [3]: 80%
- Partial Remission [3]: 10%
- Progressive Disease [3]: 0%
- Stable Disease [3]: 10%
- Symptomatic Response [3]: 100%
- lymphocytic proliferation in liver (photomicrographs) (experimental lymphoma): insignificant
- Complete Remission [4]: 40%
- Partial Remission [4]: 20%
- Progressive Disease [4]: 10%
- Stable Disease [4]: 30%
- Symptomatic Response [4]: 100%
- PSA ([5]; Day 13, 70 mg/day, Day 0 prior to treatment 1958 (nl < 4)): 1590
- PSA ([5]; Day 15, 70 mg/day): 1142
- PSA ([5]; Day 67, 70 mg/day): 802
- PSA ([5]; Day 110, 70 mg/day): 772
- neutrophiles/lymphocytes [6]: 0.3024
- hemoglobin concentration [7, 9]: increased
- number of lymphocytes [7, 9]: decrease
- total content of protein in the blood serum [7, 9]: increased
- autopsy: liver, kidney and spleen tissues, treated animals with lymphoma vs healthy mice ([7]; 5 mg/kg orally daily, sixteen days): no differences
- LDH [7, 10]: 962.00 U/L
- LDH [7, 11]: 1056 U/L and 974 U/L and 856 U/L
- LDH [7, 12]: 749.7 U/L
- LDH [7, 13]: 698 U/L and 753 U/L and 798 U/L
- LDH [7, 14]: 673 U/L
- LDH [7, 15]: 759 U/L and 583 U/L and 697 U/L and 653 U/L
- Total protein [7, 10]: 53.63 g/L
- Total protein [7, 11]: 51.5 g/L and 52.6 g/L and 56.8 g/L
- Total protein [7, 12]: 54.73 g/L
- Total protein [7, 13]: 52.9 g/L and 54.5 g/L and 56.8 g/L
- Total protein [7, 14]: 57.625 g/L
- Total protein [7, 15]: 56.5 g/l (2×) and 57.8 g/l and 59.7 g/l
- Lymphocytes [7, 10]: 9.15
- Lymphocytes [7, 12]: 7.523
- Lymphocytes [7, 14]: 7.464
- LDH level in some animals ([7]; by the sixteenth day of treatment, some animals): reached the level of healthy animals
- Body, weight ([7]; day 16, treated vs untreated diseased mice): tendency to a gain in mass
- decrease of LDH activity in blood plasma ([7]; diseased mice, 5 mg/kg orally daily, by the sixteenth day of treatment): 42.3%
- Body, weight [7, 10]: 18.04 g
- neutrophiles/lymphocytes [7, 10]: 0.28
- Body, weight [7, 11]: 18.27 g and 17.86 g and 18.00 g
- Body, weight [7, 12]: 18.2 g
- Body, weight [7, 13]: 18.28 g and 18.36 g and 17.97 g
- Body, weight [7, 14]: 18.3775 g
- neutrophiles/lymphocytes [7, 14]: 0.3255
- Body, weight [7, 15]: 18.53 g and 18.12 g and 18.26 g and 18.60 g
- CA 19-9 ([8]; Day 1, 50 mg/day, Day 0 prior to treatment 884 (nl < 37)): 793
- CA 19-9 ([8]; Day 32, 50 mg/day): 675
- CA 19-9 ([8]; Day 59, 50 mg/day (dose then increased to 60 mg/day)): 1127
- CA 19-9 ([8]; Day 128, 60 mg/day): 545
- CT scan of the abdomen, pancreas ([8]; Day 200 of therapy, 3 cm tumor in the head of pancreas before): no masses seen
